Data taken from PubChem BioAssay (NCI).
Where “and” joins values, the source holds several entries; their conditions need not be identical. Equal entries are not always repeated.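 Step 1: Grow cells in 96-well plates. Step 2: Expose to compound for 48 hours at 5 concentrations. Step 3: Interpolate endpoints linearly; if unreached, use highest concentration. GI50 is the concentration that inhibits growth by half. TGI: concentration producing complete growth inhibition.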

Assays:
Assay in all cases: NCI tumour cell line growth inhibition, 48 h
BT-549 breast = test system: BT-549 breast
DU-145 prostate = test system: DU-145 prostate
KM20L2 colon = test system: KM20L2 colon
OVCAR-3 ovarian = test system: OVCAR-3 ovarian
SR leukemia = test system: SR leukemia
786-0 renal = test system: 786-0 renal
HCC-2998 colon = test system: HCC-2998 colon
MALME-3M melanoma = test system: MALME-3M melanoma
RPMI-8226 leukemia = test system: RPMI-8226 leukemia
SF-295 CNS = test system: SF-295 CNS

Row | SMILES | GI50 (BT-549 breast) [µM] | TGI (BT-549 breast) [µM] | GI50 (DU-145 prostate) [µM] | TGI (DU-145 prostate) [µM] | GI50 (KM20L2 colon) | TGI (KM20L2 colon) | TGI (OVCAR-3 ovarian) | TGI (SR leukemia) | TGI (786-0 renal) [µM] | TGI (HCC-2998 colon) [µM] | TGI (MALME-3M melanoma) [µM] | TGI (RPMI-8226 leukemia) [µM] | TGI (SF-295 CNS) [µM] | GI50 (HCC-2998 colon) [µM] | GI50 (RPMI-8226 leukemia) [µM] | GI50 (SR leukemia) [µM]
1 | [Cl][Sn]([c]1ccccc1)([c]1ccccc1)[c]1ccccc1 | 0.282 | 0.968 | 0.21 | 0.428 | 0.034 µM and 0.0186 µM | 0.11 µM and 0.0454 µM | 0.362 µM and 0.0422 µM and 0.0566 µM | 0.86 µM and 0.552 µM and 0.112 µM | – | – | – | – | – | – | – | –
2 | N#CC1(C#N)NC(c2cccs2)C(C#N)(C#N)NC1c1cccs1 (configuration not stated) | – | 57.4 | – | > 100 | – | – | 67.8 µM | 77.3 µM | > 100 | 93.3 | > 100 | 73.1 | > 100 | – | – | –
3 | COc1ccc2c3c1OC1C(=O)C=CC4(CC2)N(C)CCC314 (configuration not stated) | – | 90.8 | – | > 100 | – | – | > 100 µM | 33.7 µM | 63.7 | 27.4 | > 100 | 45.6 | > 100 | – | – | –
4 | CCN(CC)N1C(=O)[N+](CC)(CC)N=C1[O-] | – | > 100 | – | > 100 | – | – | > 100 µM | > 100 µM | > 100 | > 100 | > 100 | > 100 | > 100 | – | – | –
5 | COc1cc2ccc(=O)oc2cc1O | – | – | – | – | – | 614 µM | 330 µM | – | – | 305 | 489 | 438 | 79.7 | 56.4 | – | –
6 | CN(C)C(=O)OC1C(=O)N(C)c2ccc(Cl)cc2C2(c3ccccc3)N1C2(Cl)Cl (configuration not stated) | – | – | – | – | – | > 100 µM | > 100 µM | > 100 µM | – | > 100 | > 100 | > 100 | > 100 | – | – | –
7 | C[N+](C)(C)c1ccc(C(N)C(=O)O)cc1 (configuration not stated) | – | > 100 | – | > 100 | – | – | > 100 µM | > 100 µM | > 100 | > 100 | > 100 | > 100 | > 100 | – | – | –
8 | COC(=O)C1(Cc2ccc3c(c2)CCC3)Cc2ccccc2C1O (configuration not stated) | – | 35.1 | – | > 100 | – | – | 36.8 µM | 75.9 µM | 32.4 | 31.9 | 37.6 | 80.4 | 35.2 | – | – | –
9 | O=C1CCCCC/C1=C\c1ccc([N+](=O)[O-])cc1 | – | 54.3 | – | > 100 | – | – | 73.2 µM | 92.9 µM | 54.6 | 33.1 | > 100 | 97 | > 100 | – | – | –
10 | COc1c(O)c(C=O)c2c(O)c(-c3c(C)cc4c(C(C)C)c(OC)c(O)c(C=O)c4c3O)c(C)cc2c1C(C)C | – | – | – | – | – | 19.9 µM | 10.7 µM | 22.7 µM | – | 5.34 | 18.8 | 22.4 | 17 | – | – | –
11 | COc1cccc(CCN2CCN(CCCc3ccccc3)CC2)c1 | – | > 100 | – | > 100 | – | – | > 100 µM | > 100 µM | > 100 | > 100 | > 100 | > 100 | > 100 | – | – | –
12 | C/C=C/c1cc(=O)c([C@@H]2OC(=O)c3cc(OC)cc(OC)c32)co1 | – | – | – | – | – | > 100 µM | 64.3 µM | > 100 µM | – | 90 | – | > 100 | > 100 | – | – | –
13 | NC(=O)c1cccc([N+](=O)[O-])c1 | – | – | – | – | – | > 100 µM | > 100 µM | – | > 100 | > 100 | > 100 | > 100 | > 100 | – | – | –
14 | CC(=O)Oc1cc2c(cc1OC(C)=O)OCC(c1ccc(C)cc1)C2 (configuration not stated) | – | – | – | – | – | 60.5 µM | 41 µM | – | – | 16.4 | 32 | 63.1 | 76.3 | – | – | –
15 | O=C1C(Cl)=C(OCCCl)C(=O)c2c(O)ccc(O)c21 | – | 26.9 | – | 32.2 | – | – | 10.9 µM | 0.397 µM | 17.3 | 35.4 | 7.53 | 0.993 | 33.3 | – | – | –
16 | CCNC(=S)N=Nc1c(O)[nH]c2ccc([N+](=O)[O-])cc12 | – | > 100 | – | > 100 | – | – | > 100 µM | > 100 µM | 69 | 72.8 | > 100 | > 100 | > 100 | – | – | –
17 | Cc1ccc(OCC2OC(n3cnc4c(Cl)nc(N)nc43)CC2Oc2ccc(C)cc2)cc1 (configuration not stated) | – | > 100 | – | > 100 | – | – | > 63.9 µM | > 100 µM | > 100 | > 57.4 | > 85.3 | > 100 | > 100 | – | – | –
18 | Cc1ccc(/C(O)=C/c2nc3ccccc3sc2=O)c(C)c1 | – | 79.6 | – | > 100 | – | – | > 100 µM | 75.8 µM | > 100 | > 100 | > 100 | 77.6 | > 100 | – | – | –
19 | Cc1ccc([S@](=O)c2occc2C=O)cc1 | – | 25.5 | – | 33.1 | – | – | 6.41 µM | 5.08 µM | 11.3 | 29.3 | 8.45 | 8.04 | 32.4 | – | – | –
20 | NS(=O)(=O)c1ccc(/C=C/c2ccc(F)cc2)cc1 | 0.205 | 4.92 | – | > 100 | – | – | 57 µM | > 100 µM | 41.2 | > 100 | > 100 | > 100 | 78.6 | – | 42.3 | 10.5
21 | OCCO/N=C1\C(c2c(O)[nH]c3ccccc23)=Nc2ccccc21 | – | > 100 | – | > 100 | – | – | > 100 µM | > 100 µM | > 100 | > 100 | > 100 | > 100 | > 100 | – | – | –
